Patent publication US20250090510A1, “eIF4G1-eIF1 INHIBITORS AND USE THEREOF” (YEDA RESEARCH AND DEVELOPMENT CO. LTD., priority 2022, published 2025)

How the values were obtained:
[1] = system: HEK293T cells; experiment: Polysome fractionation and real-time PCR of specific genes; format: cell-based, human; conditions: 3 h
Protocol: (§1) FIGS. 5A-D: 5′UTR length-dependent translational control by the eIF1-eIF4G1. […] The asterisks denote a statistically significant difference. **p<0.01, ****p<0.0001. (5B) A scheme of the firefly reporter genes that are driven by long (354 nt) and short (111 nt) 5′ UTR length, is shown on the top. HEK293T cells were transfected with these reporter genes. After 4 h, transfected cells were treated with DMSO, i14G1-10 (5 μM), or i14G1-12 (5 μM) for 16 h and analyzed for firefly luciferase activities. The graph presents the normalized luminescence activity of the long 5′UTR and the short 5′UTR reporters in the indicated treatments. The data are shown as mean±SEM, n=6. The asterisks denote statistically significant difference compared to DMSO, according to Student's t-tests (one-tailed, paired). *p<0.05; **p<0.01. (5C-D) HEK293T cells were treated with DMSO, i14G1-10, and i14G1-12 for 3 h, lysed, and subjected to sucrose gradient sedimentation and fractionation. Fractions were pooled according to polysome profile as free (grey), light (blue), and heavy (yellow) polysomal fractions. cDNA was prepared from each fraction pool and real-time PCR was performed for the indicated TISU genes (5C) or histone genes (5D). The data are shown as mean±SEM, n=3. The asterisks denote statistically significant difference compared to DMSO, according to Student's t-tests (one-tailed, paired), *p<0.05; **p<0.01.
FIGS. 7A-E: (7A) Ribo-seq and TI-seq read tracks of representative stress response-associated mRNAs (DDIT3 and GADD34) in DMSO (black), i14G1-10 (red), and i14G1-12 (green) samples. The red triangle represents 5′UTR TIS codons and the green denotes annotated TIS. Black arrows show the translation direction. […] The graphs in the lower panel are the quantification of ATF4's uORF1′, uORF1, uORF2, and main-ORF reads of the Ribo-seq data. The asterisks denote statistically significant difference compared to DMSO, according to Student's t-tests (one-tailed, paired). **p<0.01, ***p<0.001, ****p<0.0001. (7C) HEK293T cells were treated with DMSO, i14G1-10, and i14G1-12 for 3 h, lysed and subjected to sucrose gradient sedimentation and fractionation. Fractions of the free (grey), light (blue), and heavy (yellow) were pooled. cDNA was prepared from each fraction pool and real-time PCR was performed for the indicated ISR genes. The data are shown as mean±SEM, n=3. The asterisks denote statistically significant difference compared to DMSO, according to Student's t-tests (one-tailed, paired). *p<0.05; **p<0.01. (7D) HEK293T cells were treated with DMSO, i14G1-10, and i14G1-12 for 3 h. The respective cell lysates were subjected to western blot to check the protein levels of ATF3 and ATF4 (left). The graph represents the relative chemiluminescence signal intensity (mean±SEM) for ATF4 and AT3 normalized to GAPDH protein levels of three biological replicates. The asterisks denote statistically significant difference compared to DMSO, according to Student's t-tests (one-tailed, paired), *p<0.05. (7E) Control MEFs and eIF2α S52A mutant MEFs were treated with DMSO (vehicle control), and sub-cytotoxic concentrations of i14G1-10 (30 μM) and i14G1-12 (15 μM) for 3h. Cell lysates were then subjected to sucrose gradient sedimentation to obtain polysome profiles.
Polysome profile and real-time PCR. HEK293T cells were cultured in 10 cm plate up to 80% confluence, followed by DMSO, i14G1-10 (20 μM), and i14G1-12 (10 μM) treatment. After 3 h, the cells were incubated with 100 μg/ml cycloheximide for 5 minutes, washed with cold polysome buffer (20 mM Tris pH8, 140 mM KCl, 5 mM MgCl2, and 100 μg/ml cycloheximide). Cells were collected in 500-μl polysome buffer supplemented with 0.5% Triton, 0.5% DOC, 1.5 mM DTT, 150 units RNase inhibitor, and 5-μl protease inhibitor cocktail. Lysed samples were centrifuged at 12000 RPM, 5 minutes at 4° C. The cleared lysate was loaded onto sucrose density gradient (10-50%) and centrifuged at 38000 RPM for 105 minutes at 4° C. […]

[2] = system: 5′UTR length-dependent translation in HEK293T cells; experiment: Firefly luciferase reporters with long (354 nt) and short (111 nt) 5′UTR; format: cell-based, human; conditions: 5 μM, 16 h
Protocol: as §1
Since both eIF1 and eIF4G1 are important for scanning, the relationship between the translational effects of the inhibitors and the 5′UTR length was examined. […] To investigate further the link between the effect of the drug and 5′UTR length, we used two firefly luciferase reporters we used that differ only in their 5′UTR length: a short 5′UTR with 111 nucleotides and a long 5′UTR with 354 nucleotides. […] These findings confirm the inhibitory effect of these compounds on the scanning promoting activity of the eIF1-eIF4G1 complex.

Compound: Cn1ccnc1S/C(=C/C=C(C#N)C#N)c1ccc(Cl)cc1 [i14G1-12]
- translation of ACTB mRNA (control) in polysome fractions [1]: decreased translation of the ACTB mRNA
- translation of eight histone genes in polysome fractions [1]: general trend of upregulation
- translation of seven TISU genes in polysome fractions [1]: either unaffected or slightly upregulated
- translation of stress-response genes in Free, Light and Heavy polysome fractions [1]: all found to be upregulated
- luciferase reporter expression driven by the longer 5′UTR (354 nucleotides) [2]: significantly decreased
- luciferase reporter expression driven by the shorter 5′UTR (111 nucleotides) [2]: did not affect

Compound: O=C(/C=C/Sc1ccc(C(F)(F)F)cn1)c1ccccc1 [i14G1-10]
- translation of ACTB mRNA (control) in polysome fractions [1]: decreased translation of the ACTB mRNA
- translation of eight histone genes in polysome fractions [1]: general trend of upregulation
- translation of seven TISU genes in polysome fractions [1]: either unaffected or slightly upregulated
- translation of stress-response genes in Free, Light and Heavy polysome fractions [1]: all found to be upregulated
- luciferase reporter expression driven by the longer 5′UTR (354 nucleotides) [2]: significantly decreased
- luciferase reporter expression driven by the shorter 5′UTR (111 nucleotides) [2]: did not affect
